ChEMBL document CHEMBL5344406, “1,2,3-Triazole-containing hybrids with potential antibacterial activity against ESKAPE pathogens” (2022)
≈ marks a conversion by molar mass, not a printed value. Each block holds one compound with its values, some of them ahead of it.

Experiments:
Format in all cases: functional
[1] = system: Staphylococcus aureus; assay: Antibacterial activity against Staphylococcus aureus assessed as bacterial growth inhibition by CLSI based broth microdilution method
[2] = system: Escherichia coli; assay: Antibacterial activity against Escherichia coli assessed as bacterial growth inhibition by CLSI based broth microdilution method
[3] = system: Pseudomonas aeruginosa; assay: Antibacterial activity against Pseudomonas aeruginosa assessed as bacterial growth inhibition by CLSI based broth microdilution method
[4] = system: Bacillus subtilis; assay: Antibacterial activity against Bacillus subtilis assessed as bacterial growth inhibition by broth microdilution method
[5] = system: Pseudomonas aeruginosa; assay: Antibacterial activity against Pseudomonas aeruginosa assessed as bacterial growth inhibition by broth microdilution method
[6] = system: Staphylococcus aureus; assay: Antibacterial activity against Staphylococcus aureus ATCC 43300 assessed as bacterial growth inhibition incubated for 24 hrs by CLSI based broth dilution method
[7] = system: Staphylococcus aureus; assay: Antibacterial activity against Staphylococcus aureus ATCC 29213 assessed as bacterial growth inhibition incubated for 24 hrs by CLSI based broth dilution method
[8] = system: Staphylococcus aureus; assay: Antibacterial activity against Staphylococcus aureus clinical isolate 144 assessed as bacterial growth inhibition incubated for 24 hrs by CLSI based broth dilution method
[9] = system: Staphylococcus aureus; assay: Antibacterial activity against Staphylococcus aureus clinical isolate AD3 assessed as bacterial growth inhibition incubated for 24 hrs by CLSI based broth dilution method
[10] = system: Streptococcus pyogenes; assay: Antibacterial activity against erythromycin-resistant Streptococcus pyogenes clinical isolate 2 assessed as bacterial growth inhibition incubated for 24 hrs by CLSI based broth microdilution method
[11] = system: Streptococcus pneumoniae; assay: Antibacterial activity against erythromycin-resistant Streptococcus pneumoniae AB11 expressing ermB/mefA assessed as bacterial growth inhibition incubated for 24 hrs by CLSI based broth microdilution method
[12] = system: Streptococcus pneumoniae; assay: Antibacterial activity against erythromycin-resistant Streptococcus pneumoniae B1 expressing ermB assessed as bacterial growth inhibition incubated for 24 hrs by CLSI based broth microdilution method
[13] = system: Staphylococcus aureus; assay: Antibacterial activity against methicillin-resistant Staphylococcus aureus ATCC 43300 assessed as bacterial growth inhibition incubated for 24 hrs by CLSI based broth microdilution method
[14] = system: Staphylococcus aureus; assay: Antibacterial activity against penicillin-resistant Staphylococcus aureus ATCC 31007 assessed as bacterial growth inhibition incubated for 24 hrs by CLSI based broth microdilution method
[15] = system: Staphylococcus aureus; assay: Antibacterial activity against Staphylococcus aureus ATCC 25923 assessed as bacterial growth inhibition by broth microdilution method
[16] = system: Escherichia coli; assay: Antibacterial activity against Escherichia coli ATCC 25922 assessed as bacterial growth inhibition by broth microdilution method
[17] = system: Staphylococcus aureus; assay: Antibacterial activity against Staphylococcus aureus assessed as bacterial growth inhibition by broth microdilution method
[18] = system: Escherichia coli; assay: Antibacterial activity against Escherichia coli assessed as bacterial growth inhibition by broth microdilution method
[19] = system: Escherichia coli; assay: Antibacterial activity against Escherichia coli assessed as bacterial growth inhibition
[20] = system: Staphylococcus aureus; assay: Antibacterial activity against Staphylococcus aureus assessed as bacterial growth inhibition
[21] = system: Staphylococcus aureus; assay: Antibacterial activity against Staphylococcus aureus 209p ATCC 6538P assessed as bacterial growth inhibition incubated for 1 to 2 days by serial dilution method; details: time 1-2 day
[22] = system: Staphylococcus aureus; assay: Antibacterial activity against Staphylococcus aureus ATCC 43300 assessed as bacterial growth inhibition incubated for 24 hrs by broth microdilution method
[23] = system: Staphylococcus aureus; assay: Antibacterial activity against Staphylococcus aureus ATCC 29213 assessed as bacterial growth inhibition incubated for 24 hrs by broth microdilution method
[24] = system: Staphylococcus aureus; assay: Antibacterial activity against Staphylococcus aureus clinical isolate AD3 assessed as bacterial growth inhibition incubated for 24 hrs by broth microdilution method
[25] = system: Staphylococcus aureus; assay: Antibacterial activity against Staphylococcus aureus clinical isolate 144 assessed as bacterial growth inhibition incubated for 24 hrs by broth microdilution method
[26] = system: Staphylococcus aureus; assay: Antibacterial activity against erythromycin-susceptible Staphylococcus aureus ATCC 25923 assessed as bacterial growth inhibition by standard dilution assay
[27] = system: Staphylococcus aureus; assay: Antibacterial activity against methicillin-resistant Staphylococcus aureus ATCC 43300 assessed as bacterial growth inhibition by standard dilution assay
[28] = system: Staphylococcus aureus; assay: Antibacterial activity against erythromycin-resistant Staphylococcus aureus clinical isolate assessed as bacterial growth inhibition by standard dilution assay
[29] = system: Staphylococcus aureus; assay: Antibacterial activity against penicillin-resistant Staphylococcus aureus ATCC 31007 assessed as bacterial growth inhibition by standard dilution assay
[30] = system: Klebsiella pneumoniae; assay: Antibacterial activity against erythromycin-resistant Klebsiella pneumoniae ATCC 700603 assessed as bacterial growth inhibition by standard dilution assay
[31] = system: Staphylococcus aureus; assay: Potency index, ratio of Azithromycin MIC to test compound MIC for antibacterial activity against erythromycin-susceptible Staphylococcus aureus ATCC 25923 assessed as bacterial growth inhibition by standard dilution assay
[32] = system: Staphylococcus aureus; assay: Potency index, ratio of Clarithromycin MIC to test compound MIC for antibacterial activity against erythromycin-susceptible Staphylococcus aureus ATCC 25923 assessed as bacterial growth inhibition by standard dilution assay

MIC [4]: 1.25 µg/mL (≈ 3.62 µM)
MIC [5]: 1.25 µg/mL (≈ 3.62 µM)
Structure (SMILES): C=CCCCCC1CC(=O)N1Cc1cn(-c2cccc(Cl)c2)nn1 (stereo unspecified)

MIC [6]: 1 µg/mL (≈ 1.31 µM)
MIC [7]: 1 µg/mL (≈ 1.31 µM)
MIC [8]: 1 µg/mL (≈ 1.31 µM)
MIC [9]: 1 µg/mL (≈ 1.31 µM)
Structure (SMILES): C=C[C@]1(C)C[C@@H](OC(=O)CN2CCN(C(=O)Cn3cc(CN4CCN(c5ccc(Cl)cc5)CC4)nn3)CC2)[C@@]2(C)[C@@H]3C(=O)CC[C@@]3(CC[C@@H]2C)[C@@H](C)[C@@H]1O

MIC [15]: 6.5 µg/mL (≈ 16.9 µM)
MIC [16]: 6.5 µg/mL (≈ 16.9 µM)
Structure (SMILES): Cc1ccc2c(c1)C=C(c1nnn(Cc3cn(Cc4ccccc4)nn3)n1)CO2

MIC [17]: 1.56 µg/mL (≈ 3.77 µM)
MIC [4]: 1.56 µg/mL (≈ 3.77 µM)
MIC [18]: 1.56 µg/mL (≈ 3.77 µM)
MIC [5]: 1.56 µg/mL (≈ 3.77 µM)
Structure (SMILES): CC(=O)Nc1ccc(S(=O)(=O)n2cc(CN3CCS(=O)(=O)CC3)nn2)cc1

MIC [19]: 1 µg/mL (≈ 2.5 µM)
MIC [20]: 1 µg/mL (≈ 2.5 µM)
Structure (SMILES): Cn1c([N+](=O)[O-])cnc1COCc1cn(-c2ccnc3cc(Cl)ccc23)nn1

MIC [21]: 0.31 µg/mL (≈ 0.792 µM)
Structure (SMILES): COC(=O)c1cc2ccc(=O)oc2cc1-c1cn(-c2ccc(C(=O)O)cc2)nn1

MIC [15]: 6.5 µg/mL (≈ 13.7 µM)
MIC [16]: 6.5 µg/mL (≈ 13.7 µM)
Structure (SMILES): Clc1ccc(Cn2cc(Cn3nnc(C4=Cc5cc(Cl)ccc5OC4)n3)nn2)c(Cl)c1

Continued, compound first:

Structure (SMILES): O=C(N/N=C/c1cn(-c2ccccc2)nc1-c1ccc([N+](=O)[O-])cc1)c1cccc(-n2cc(-c3ccccc3)nn2)c1
MIC [1]: 4 µg/mL (≈ 7.21 µM)
MIC [2]: 4 µg/mL (≈ 7.21 µM)
MIC [3]: 4 µg/mL (≈ 7.21 µM)

Structure (SMILES): O=C(N/N=C/c1cn(-c2ccccc2)nc1-c1ccc(Cl)cc1)c1cccc(-n2cc(-c3ccccc3)nn2)c1
MIC [1]: 4 µg/mL (≈ 7.35 µM)
MIC [2]: 4 µg/mL (≈ 7.35 µM)
MIC [3]: 4 µg/mL (≈ 7.35 µM)

Structure (SMILES): O=C(N/N=C/c1cn(-c2ccccc2)nc1-c1ccccc1)c1cccc(-n2cc(-c3ccccc3)nn2)c1
MIC [1]: 4 µg/mL (≈ 7.85 µM)
MIC [2]: 4 µg/mL (≈ 7.85 µM)
MIC [3]: 4 µg/mL (≈ 7.85 µM)

Structure (SMILES): CCCCCc1ccc(-c2cn(CCCN3CCOC(=O)[C@H](C)[C@@H](O[C@H]4C[C@@](C)(OC)[C@@H](O)[C@H](C)O4)[C@H](C)[C@@H](O[C@H]4O[C@@H](C)C[C@@H](N(C)C)[C@@H]4O)[C@](C)(OC)C[C@@H](C)[C@H](O)[C@H](C)C3)nn2)cc1
MIC [10]: 4 µg/mL (≈ 4.23 µM)
MIC [11]: 4 µg/mL (≈ 4.23 µM)
MIC [12]: 4 µg/mL (≈ 4.23 µM)
MIC [13]: 4 µg/mL (≈ 4.23 µM)
MIC [14]: 4 µg/mL (≈ 4.23 µM)

Structure (SMILES): CCCCCc1ccc(-c2cn(CC(=O)NNC(=O)O[C@H]3[C@H](C)[C@@H](O[C@H]4O[C@@H](C)C[C@@H](N(C)C)[C@@H]4O)[C@](C)(O)C[C@@H](C)CN(C)[C@H](C)C4OC(=O)O[C@@]4(C)[C@@H](CC)OC(=O)[C@@H]3C)nn2)cc1 (stereo partly specified)
MIC [10]: 4 µg/mL (≈ 4.3 µM)
MIC [11]: 4 µg/mL (≈ 4.3 µM)
MIC [12]: 4 µg/mL (≈ 4.3 µM)
MIC [13]: 4 µg/mL (≈ 4.3 µM)
MIC [14]: 4 µg/mL (≈ 4.3 µM)

Structure (SMILES): C=C[C@]1(C)C[C@@H](OC(=O)CO)C2(C)[C@H](C)CCC3(CCC(=O)[C@H]32)[C@@H](C)[C@@H]1O (stereo partly specified)
MIC [22]: 2 µg/mL (≈ 5.28 µM)
MIC [23]: 2 µg/mL (≈ 5.28 µM)
MIC [24]: 2 µg/mL (≈ 5.28 µM)
MIC [25]: 2 µg/mL (≈ 5.28 µM)
MIC [6]: 2 µg/mL (≈ 5.28 µM)
MIC [7]: 2 µg/mL (≈ 5.28 µM)
MIC [8]: 2 µg/mL (≈ 5.28 µM)
MIC [9]: 2 µg/mL (≈ 5.28 µM)

Structure (SMILES): CCCCc1ccc(-c2cn(CC(=O)NNC(=O)O[C@H]3C[C@H](C)[C@@H](O[C@@H]4[C@H](C)[C@@H](O[C@H]5O[C@@H](C)C[C@@H](N(C)C)[C@@H]5O)[C@@](C)(O)C[C@@H](C)CN(C)[C@H](C)[C@H]5OC(=O)O[C@]5(C)[C@H](CC)OC(=O)[C@@H]4C)C[C@@]3(C)OC)nn2)cc1
MIC [26]: 2 µg/mL (≈ 1.87 µM)
MIC [27]: 2 µg/mL (≈ 1.87 µM)
MIC [28]: ≥ 128 µg/mL
MIC [29]: 2 µg/mL (≈ 1.87 µM)
MIC [30]: ≥ 128 µg/mL
Ratio [31]: >32
Ratio [32]: >32
